Data set [1] deals with U87. As to the kind of experiment: MTT cell viability assay, U87. As to conditions: Homo sapiens, U-87 MG, 72 h, read-out: Cytotoxicity Data IC50 (μM). A general note: Tetrazolium assays rely on reduction of a dye to a coloured formazan, in cell work by metabolically active cells.
Description: (§2) All test samples are dissolved in dimethyl sulfoxide (DMSO) to make stock solutions and further diluted in culture medium upon assay. Human cancer cell lines including U87, MDA-MB-231, AGS and HepG2 are cultured in RPMI 1640 or DMEM or DMEM/F12 medium, containing 10% fetal bovine serum. All cell lines are maintained at 37° C. in a humidified environment containing 5% CO2. To determine the effects of the compounds on cell viability, cell number is quantified using a standard colorimetric MTT assay. Cells are placed in a 96-well plate (5×10^3 cells/well) and allowed to attach overnight. Cells are treated with 5, 10, 20, 40 μM of each compound in culture medium for 72 h, respectively. Then, culture media are added with 20 μL of MTT (5 mg/mL stock in PBS) per well and incubated for 4 h at 37° C. Finally, culture media are discarded and 150 μL of DMSO is added to each well to dissolve the purple formazan crystals. Absorbance of the solution is measured using microplate reader spectrophotometer (Bio-Rad Laboratories, Inc., Hercules, Calif.), at a wavelength of 490 nm. Absorbance of untreated cells in medium (negative control) is 100%. Curcumin and paclitaxel are used as the positive control.
The test system of data set [2] is AGS. As to the kind of experiment: MTT cell viability assay, AGS. Particulars: Homo sapiens, 72 h, read-out: Cytotoxicity Data IC50 (μM).
Description: as §2
The test system of data set [3] is HepG2. Kind of data set: MTT cell viability assay, HepG2. As to conditions: Homo sapiens. The class given is cell-based. The text has this: (§1) Curcumin and paclitaxel are used as the positive control.
Data set [4] concerns MDA-MB-231. As to the kind of experiment: MTT cell viability assay, MDA-MB-231. The class given is cell-based. Particulars: Homo sapiens; MDA-MB-231, MTT, 72 h; read-out: Cytotoxicity Data IC50.
Text: as §1

In data set [5] the test system is normal liver cells immortalized MIHA. As to the kind of experiment: MTT cytotoxicity assay on normal liver cells immortalized MIHA. The data set is classed as cell-based, human. Particulars: for Survival rate (%): MTT, 72 h. How it is done:
The cytotoxicity of Compound A to normal liver cells immortalized MIHA is tested with MTT assay.
For MTT assay, 10 μL MTT solution is added into each well of a 96-well plate. After 2 h incubation at 37° C., 100 μL 10% SDS solution with 10 mM HCl is added to dissolve the purple crystals. After 24 h incubation, the optical density (OD) readings at 595 nm are measured using a Perkin-Elmer Victor plate reader. The values of IC50 are determined using the method described in the cited literatures with some modifications. To determine the IC50 value of a compound in a cell line, the growth inhibitory effect of Compound A at different concentrations is measured by MTT assay. For each tested concentration, 3000 cells suspended in 100 μL culture medium are seeded in each well of a 96-well plate. The well containing 100 μL culture medium without cells is used as a blank. After an overnight culture, Compound A at the designed concentration is added. The OD values of the control group at 0 h (C0) and 72 h (C72) together with the compound treated groups at 72 h (T72) from the MTT assay are measured using the Perkin-Elmer Victor plate reader. The survival rates are calculated using the formula (T72−C0)/(C72−C0)×100%. The inhibition rates are calculated using the following formula [1−(T72−C0)/(C72−C0)]×100% and plotted against logarithmic concentrations by sigmoidal fit. IC50 is defined as the concentration of a compound inhibiting 50% of cell growth. Each IC50 test is performed in triplicate and repeated at least three times.

Experimental findings from US20140235877A1, “COMPOUNDS, METHODS OF PREPARATION AND USE THEREOF FOR TREATING CANCER” (Hong Kong Baptist University, priority 2013, published 2014) are described below.

pIC50: −log10 of the molar value. Read-outs that look alike come from different tables or passages of the source.

As to `CC(=O)O[C@H]1C(=O)[C@@]2(C)[C@H]([C@H](OC(=O)c3ccccc3)[C@]3(O)C[C@H](OC(=O)[C@H](O)[C@@H](NC(=O)c4ccccc4)c4ccccc4)C(C)=C1C3(C)C)[C@]1(OC(C)=O)CO[C@@H]1C[C@@H]2O` [Paclitaxel], the IC50 (as a rule, the midpoint of a concentration-inhibition curve) in data set [1] stood at 285 µM; in data set [2], 23.1 µM.

In the case of `COc1c(OC)c(O)c2c(=O)c3c(CC=C(C)C)c(CC=C(C)C)c(O)c(O)c3oc2c1CC=C(C)C` [Compound B], the pIC50 – broadly, the negative decadic logarithm of the IC50, by convention in mol/L – in data set [3] (HepG2, MTT, 72 h, read-out: Cytotoxicity Data IC50) is 4.69; in data set [4], 4.15. The IC50 in data set [1] worked out at 55.3 µM; in data set [2], 31.1 µM.

For `COc1cc(/C=C/C(=O)CC(=O)/C=C/c2ccc(O)c(OC)c2)ccc1O` [Curcumin], the IC50 in data set [1] came out at 20.8 µM; in data set [2], 4.38 µM. The pIC50 in data set [4] is 5.42.

`COc1c(O)c(O)c2c(=O)c3c(CC=C(C)C)c(CC=C(C)C)c(O)c(O)c3oc2c1CC=C(C)C` [Compound A, 1,2,5,6-tetrahydroxy-3-methoxy-4,7,8-tri(3-methylbut-2-enyl)-xanthone]: the IC50 in data set [3] (HepG2, MTT, read-out: IC50 on HepG2 cells growth) is 5.3 µg/mL. Moreover, the inhibition – broadly, the relative decrease from the control value, in per cent – at 0.8 µg/mL in data set [3] (HepG2, compound A 0.8 μg/mL, MTT, read-out: Inhibition rate %) was found to be 7.79%. Also, the inhibition at 1.6 µg/mL in data set [3] (HepG2, compound A 1.6 μg/mL, MTT, read-out: Inhibition rate %) was found to be 8.16%. For the same molecule, the inhibition at 3.125 µg/mL in data set [3] (HepG2, compound A 3.125 μg/mL, MTT, read-out: Inhibition rate %) is 15%. In addition, the inhibition at 6.25 µg/mL in data set [3] (HepG2, compound A 6.25 μg/mL, MTT, read-out: Inhibition rate %) is 59.2%. For the same molecule, in data set [3] (HepG2, compound A 12.5 μg/mL, MTT, read-out: Inhibition rate %), the inhibition at 12.5 µg/mL was 75.6%. In addition, the inhibition at 25 µg/mL in data set [3] (HepG2, compound A 25 μg/mL, MTT, read-out: Inhibition rate %) amounted to 76.6%. In addition, in data set [3] (HepG2, compound A 50 μg/mL, MTT, read-out: Inhibition rate %), the inhibition at 50 µg/mL amounted to 69.3%. Besides, the inhibition at 100 µg/mL in data set [3] (HepG2, compound A 100 μg/mL, MTT, read-out: Inhibition rate %) stood at 74.3%. The “Survival rate (%)” value in data set [5] (compound A 5 μg/mL) worked out at 101.7881%; in data set [5] (compound A 10 μg/mL) it was 85.45%; in data set [5] (compound A 20 μg/mL), 85.89%; in data set [5] (compound A 40 μg/mL), 68.01%. Also, in data set [5] (from survival rate curve (FIG. 1)), the “half toxic concentration TC50” value was above 40 µg/mL. For the same molecule, the “toxicity on normal cells” value in data set [5] (result in words) is on record as “low toxicity”.
